# Reference: BindingDB's records for doi:10.1016/j.bmc.2014.01.014 (Shenyang Pharmaceutical University, 2014)
# Biological target: Hepatocyte growth factor receptor (Homo sapiens, UniProt P08581)
# Assay: Inhibition of c-Met (unknown origin) using poly (Glu, Tyr) 4:1 after 30 mins by HTRF assay
row,SMILES,IC50
1,COc1cc2c(Oc3ccc(N=Cc4c(O)n(-c5ccc(F)cc5F)c(=O)[nH]c4=O)cc3F)ccnc2cc1OCCCN1CCOCC1,12 nM
2,COc1cc2c(Oc3ccc(N=Cc4c(O)n(-c5ccc(F)cc5)c(=O)[nH]c4=O)cc3F)ccnc2cc1OCCCN1CCCC1,2.7 nM
3,COc1cc2c(Oc3ccc(N=Cc4c(O)n(-c5ccc(C)cc5)c(=O)[nH]c4=O)cc3F)ccnc2cc1OCCCN1CCN(C)CC1,2.7 nM
4,COc1cc2c(Oc3ccc(N=Cc4c(O)n(-c5ccc(F)cc5F)c(=O)[nH]c4=O)cc3F)ccnc2cc1OCCCN1CCCC1,12 nM
